From PMC9551036, “A selective and orally bioavailable VHL-recruiting PROTAC achieves SMARCA2 degradation in vivo” (Nature Communications, 2022) come the findings set out here.

In series [1] the test system is VCB: PROTAC: SMARCA2^BD ternary complex. Kind of series: TR-FRET ternary complex affinity and cooperativity, SMARCA2. It is filed as binding, human. Conditions: ratio TR-FRET EC50 / TR-FRET EC50 +VCB measured in the same run, SMARCA2BD.
The next series in a line: Solubility testing. The class given is physicochemical. Conditions: buffer, kinetic from dmso stock. On the procedure:
Dilution into a 1:1 mixture of acetonitrile and water was used as reference. After 24 h, the incubations were filtrated, and the filtrate was analyzed by LC-UV.

The next series deals with Caco-2 cell monolayer. Kind of series: Bidirectional permeability measurement in Caco-2 cells. Conditions: Caco-2, a to b. It is filed as in vitro ADME. In outline: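 Compound quantified by LC-MS/MS in samples taken over up to 2 h across 14–21-day Caco-2 monolayers, after 24 h preincubation with 1 µM compound. Runs done without and with 5 µM zosuquidar to probe P-gp. Efflux ratio is the quotient of duplicate-mean Papp,BA over Papp,AB.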
A general note: Caco-2 cells form a polarised layer with tight junctions and transporters.

Series [2] deals with T1, PBRM1BD5 (Homo sapiens, UniProt P40337+Q86U86).
T1 construct: GST (TEV site) (N); His6 (TEV site) (N, cleaved yes); made in house; host or cells: PBRM1^BD5: Escherichia coli BL21(DE3)
Description: TR-FRET ternary complex affinity and cooperativity, PBRM1. It is filed as binding. Conditions: TR-FRET competition for PBRM1BD5, + VCB; mean ± SD; read-out: TR-FRET Ternary PBRM1BD EC50 (PROTAC + VCB). (In general: Time-resolved FRET reads energy transfer from a long-lived donor to a nearby acceptor.)

The subject of series [3] is PBRM1BD5. The description is as above. Conditions: ratio TR-FRET EC50 / TR-FRET EC50 +VCB measured in the same run, PBRM1BD5. It is filed as binding.
In series [4] the target is VCB: PROTAC: SMARCA2^BD ternary complex (Homo sapiens, UniProt P40337+P51531). Kind of series: SPR ternary complex measurement, VCB immobilised, 10 µM SMARCA2^BD present. It is filed as binding. More on the design: P51531-2, residues 1373-1493 with additional N-terminal SM residues; His6 (TEV site) (N, cleaved yes); GST (TEV site) (N, cleaved yes); made in house; host or cells: SMARCA2^BD: Escherichia coli BL21(DE3). The following applies: for Kd: SPR. On the procedure: SPR data were acquired on Biacore 8K or T200 instruments (Cytiva). Target proteins were immobilised at 25 °C on CM5 chips by amine coupling (EDC/NHS, Cytiva) in HBS-P+ running buffer (pH 7.4), containing 2 mM TCEP. […] The reference surface was subsequently deactivated using 1 M ethanolamine. […] Biotinylated VCB was prepared as previously described[27]: in brief, the complex was mixed 1:1 with EZ-Link NHS–PEG4–biotin (Thermo Scientific) and incubated at room temperature for 1 h. Unreacted NHS-biotin was removed using a PD-10 desalting column (Cytiva) into 20 mM HEPES, pH 7.5, 150 mM sodium chloride and 1 mM DTT. The reference surface was generated by deactivating the EDC/NHS-treated surface with 1 M ethanolamine. All interaction experiments were done at 6 °C in running buffer (20 mM TRIS, pH 8.3, 150 mM potassium chloride, 2 mM magnesium chloride, 2 mM TCEP, 0.005% TWEEN 20, 1% dimethyl sulfoxide). For ternary complex measurements, a sensor chip surface with VCB immobilised was used (preparation as described above). Experiments were run in dual-inject mode with 10 µM SMARCA present during the injection and dissociation phase. Sensorgrams from reference surfaces and blank injections were subtracted from the raw data prior to data analysis using Biacore Insight software. Affinity and binding kinetic parameters were determined by global fitting using the 1:1 interaction model with a term for mass-transport included.

SMILES strings stand for the structures. In brackets after ≈: the same amount, converted by molar mass. Several values for one entry are separate records, joined by “and”; a condition that tells them apart may be missing. Equal entries are not always repeated. Where two headings read alike, the source gives them in different places. A value given as a limit tells only on which side of the number the result lay.

VCB: PROTAC: SMARCA2^BD ternary complex (Homo sapiens, UniProt P40337+P51531), sequence (P40337 54-213): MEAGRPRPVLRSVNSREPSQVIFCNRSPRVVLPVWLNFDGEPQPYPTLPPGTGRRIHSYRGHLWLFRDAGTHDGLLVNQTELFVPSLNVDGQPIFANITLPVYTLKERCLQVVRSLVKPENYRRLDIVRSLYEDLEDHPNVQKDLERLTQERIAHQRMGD
VCB: PROTAC: SMARCA2^BD ternary complex (Homo sapiens, UniProt P40337+P51531), sequence (Q15369 17-112 partner limits assumed): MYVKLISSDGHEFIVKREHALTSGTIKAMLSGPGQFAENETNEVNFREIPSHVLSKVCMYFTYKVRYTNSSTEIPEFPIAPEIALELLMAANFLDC
VCB: PROTAC: SMARCA2^BD ternary complex (Homo sapiens, UniProt P40337+P51531), sequence (Q15370 1-104 partner limits assumed): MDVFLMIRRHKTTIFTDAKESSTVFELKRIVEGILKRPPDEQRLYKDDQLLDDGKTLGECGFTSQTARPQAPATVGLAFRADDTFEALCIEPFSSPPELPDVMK
VCB: PROTAC: SMARCA2^BD ternary complex (Homo sapiens, UniProt P40337+P51531), sequence (P51531 1373-1493 isoform P51531-2): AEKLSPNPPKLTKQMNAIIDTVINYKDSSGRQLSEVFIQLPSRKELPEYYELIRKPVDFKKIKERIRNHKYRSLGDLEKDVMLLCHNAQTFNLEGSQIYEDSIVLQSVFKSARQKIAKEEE
T1 sequence (Q86U86 645-766): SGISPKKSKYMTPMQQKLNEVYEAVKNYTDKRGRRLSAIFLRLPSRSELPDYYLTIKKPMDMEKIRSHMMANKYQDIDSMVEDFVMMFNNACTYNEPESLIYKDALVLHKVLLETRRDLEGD
T1 sequence (P40337 54-213): as the sequence (P40337 54-213) above
T1 sequence (Q15369 17-112 partner): as the sequence (Q15369 17-112 partner limits assumed) above
T1 sequence (Q15370 1-104 partner): as the sequence (Q15370 1-104 partner limits assumed) above

`Cc1ncsc1-c1ccc([C@H](COCCN2CCC(c3ccc4c(c3)n(C3CCCC3)c3nc(=O)c5c(Br)cccc5n43)CC2)NC(=O)[C@@H]2C[C@@H](O)CN2C(=O)[C@@H](NC(=O)C2(N(C)C)CC2)C(C)(C)C)cc1` [compound 26]: in series [1], the “cooperativity α (SMARCA2BD)” value was 5.8 ± 1.9. In addition, the solubility (commonly how much of the substance goes into solution per volume) at 24 h in “Solubility testing” (pH 4.5, aqueous buffer, pH 4.5, read-out: Solubility pH 4.5) is 200 µg/mL (≈ 188 µM); in “Solubility testing” (pH 6.8, aqueous buffer, pH 6.8, read-out: Solubility pH 6.8), below 1 µg/mL. In addition, in the series on Caco-2 cell monolayer, the “Caco-2 Pab” value was below 2.7 ×10⁻⁶ cm/s. Further, the EC50 (as a rule, the concentration that produces a half-maximal response) at PBRM1BD5 [2] stood at 6 ± 2 nM. Besides, the “cooperativity α (PBRM1BD)” value in the series on PBRM1BD5 [3] turned out to be 4.0 ± 1.2. The Kd – broadly, the equilibrium constant for the complex coming apart – in series [4] (ternary complex with SMARCA2BD, mean ± SD) was 95 ± 37 nM; in series [4] (ternary, individual replicates) it was 64.1 nM and 136 nM and 86.3 nM. In addition, the alpha in series [4] (cooperativity, SMARCA2, ratio of KD values measured in the same run) was found to be 0.8.
